US8642609B2, “Modulators of ATP-binding cassette transporters” (Vertex Pharmaceuticals Incorporated, priority 2003, dated 2014)

Biological target: T1, ΔF508-CFTR (Homo sapiens, UniProt P13569, DEL508-508)
T1 construct: expressed in transfected cells
Experiment: Membrane potential optical assay (FRET/VIPR), identification of correction compounds
Assay type: cell-based
Conditions: for Emax: relative efficacy
Summary of the method: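 NIH3T3 cells stably expressing ΔF508-CFTR incubated 16 hrs at 37° C in serum-free medium with test compound; 27° C incubation as positive control. CFTR then activated with 10 μM forskolin plus 20 μM genistein in Cl^−-free medium; depolarization read by DiSBAC2(3)/CC2-DMPE FRET on VIPR.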

T1 sequence (P13569 with tags, fused parts or gaps DEL508-508): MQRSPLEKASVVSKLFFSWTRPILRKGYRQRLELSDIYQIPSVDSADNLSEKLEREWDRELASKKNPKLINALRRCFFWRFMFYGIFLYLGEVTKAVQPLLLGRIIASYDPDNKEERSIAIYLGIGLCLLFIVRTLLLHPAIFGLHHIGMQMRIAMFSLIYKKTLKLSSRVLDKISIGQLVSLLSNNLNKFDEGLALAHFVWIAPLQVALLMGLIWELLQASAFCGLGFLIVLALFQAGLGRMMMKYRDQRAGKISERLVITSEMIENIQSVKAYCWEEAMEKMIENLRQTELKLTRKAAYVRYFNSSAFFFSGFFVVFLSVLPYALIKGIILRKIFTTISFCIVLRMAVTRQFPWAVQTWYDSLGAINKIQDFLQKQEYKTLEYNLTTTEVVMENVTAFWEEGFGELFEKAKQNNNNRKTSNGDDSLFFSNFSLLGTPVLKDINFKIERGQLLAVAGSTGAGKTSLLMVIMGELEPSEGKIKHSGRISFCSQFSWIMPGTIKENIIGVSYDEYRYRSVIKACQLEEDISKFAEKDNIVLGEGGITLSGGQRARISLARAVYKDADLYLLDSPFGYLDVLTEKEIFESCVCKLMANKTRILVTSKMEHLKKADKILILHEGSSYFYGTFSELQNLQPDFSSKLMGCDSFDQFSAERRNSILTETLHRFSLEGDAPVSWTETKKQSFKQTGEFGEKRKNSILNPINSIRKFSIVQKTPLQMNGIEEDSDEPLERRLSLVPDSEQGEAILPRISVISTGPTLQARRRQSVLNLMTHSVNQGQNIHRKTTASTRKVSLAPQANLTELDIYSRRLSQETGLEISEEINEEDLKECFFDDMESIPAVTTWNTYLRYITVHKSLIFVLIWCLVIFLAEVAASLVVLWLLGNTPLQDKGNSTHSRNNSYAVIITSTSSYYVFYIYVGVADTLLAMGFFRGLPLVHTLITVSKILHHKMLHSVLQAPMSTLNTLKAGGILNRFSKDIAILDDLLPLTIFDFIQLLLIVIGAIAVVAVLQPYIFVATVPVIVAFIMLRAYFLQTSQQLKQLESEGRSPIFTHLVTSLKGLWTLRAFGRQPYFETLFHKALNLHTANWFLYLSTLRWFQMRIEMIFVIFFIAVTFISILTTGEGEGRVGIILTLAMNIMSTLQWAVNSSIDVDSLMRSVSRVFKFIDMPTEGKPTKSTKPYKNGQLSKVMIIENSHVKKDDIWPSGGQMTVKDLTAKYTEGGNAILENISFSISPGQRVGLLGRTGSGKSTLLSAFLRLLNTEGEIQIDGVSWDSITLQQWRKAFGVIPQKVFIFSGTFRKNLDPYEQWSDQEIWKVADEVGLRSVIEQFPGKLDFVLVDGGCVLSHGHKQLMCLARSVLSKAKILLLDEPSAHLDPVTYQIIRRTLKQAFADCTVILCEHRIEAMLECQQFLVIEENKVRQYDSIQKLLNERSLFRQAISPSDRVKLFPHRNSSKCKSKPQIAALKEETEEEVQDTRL

Row | Structure (SMILES) | EC50 | Emax
1 | Cc1nn(C)c(Cl)c1S(=O)(=O)N1CCN(C(C)c2nc3ccccc3c(=O)n2C)CC1 (stereo not shown) [compound 257] | 25 to 60 µM | < 25%
2 | CC(c1nc2ccccc2c(=O)n1C)N1CCN(S(=O)(=O)c2ccc(-c3cc(C(F)(F)F)nn3C)s2)CC1 (stereo not shown) [compound 258] | 25 to 60 µM | < 25%
3 | CC(c1nc2ccccc2c(=O)n1C)N1CCN(S(=O)(=O)c2ccccc2C#N)CC1 (stereo not shown) [compound 259] | 25 to 60 µM | < 25%
4 | CC(c1nc2ccccc2c(=O)n1C)N1CCN(S(=O)(=O)c2ccc(Cl)s2)CC1 (stereo not shown) [compound 260] | 10 to 25 µM | 25 to 100%
5 | CC(c1nc2ccccc2c(=O)n1C)N1CCN(S(=O)(=O)c2ccc(-c3cc(C(F)(F)F)on3)s2)CC1 (stereo not shown) [compound 261] | 25 to 60 µM | 25 to 100%
6 | CC(c1nc2ccccc2c(=O)n1C)N1CCN(S(=O)(=O)c2ccc(S(C)(=O)=O)cc2)CC1 (stereo not shown) [compound 262] | 25 to 60 µM | < 25%
7 | CC(c1nc2ccccc2c(=O)n1C)N1CCN(S(=O)(=O)c2cc(S(=O)(=O)c3ccccc3)cs2)CC1 (stereo not shown) [compound 263] | 25 to 60 µM | < 25%
8 | CC(c1nc2ccccc2c(=O)n1C)N1CCN(S(=O)(=O)c2cccc3nonc23)CC1 (stereo not shown) [compound 264] | 25 to 60 µM | < 25%
9 | CC(c1nc2ccccc2c(=O)n1C)N1CCN(S(=O)(=O)c2ccc(S(=O)(=O)c3ccccc3)s2)CC1 (stereo not shown) [compound 265] | 25 to 60 µM | < 25%
10 | Cc1noc(C)c1S(=O)(=O)N1CCN(C(C)c2nc3ccccc3c(=O)n2C)CC1 (stereo not shown) [compound 266] | 25 to 60 µM | < 25%
11 | CC(c1nc2ccccc2c(=O)n1C)N1CCN(S(=O)(=O)c2ccc(Oc3ccccc3)nc2)CC1 (stereo not shown) [compound 267] | 25 to 60 µM | < 25%
12 | CC(c1nc2ccccc2c(=O)n1C)N1CCN(S(=O)(=O)c2c(Cl)nc3sccn23)CC1 (stereo not shown) [compound 268] | 25 to 60 µM | < 25%
13 | CC(c1nc2ccccc2c(=O)n1C)N1CCN(S(=O)(=O)c2ccc(-c3ccon3)s2)CC1 (stereo not shown) [compound 269] | 25 to 60 µM | < 25%
14 | Cc1c(S(=O)(=O)N2CCN(C(C)c3nc4ccccc4c(=O)n3C)CC2)sc2ccc(Cl)cc12 (stereo not shown) [compound 270] | 25 to 60 µM | < 25%
15 | CC(c1nc2ccccc2c(=O)n1C)N1CCN(S(=O)(=O)c2ccc(Cl)c3nonc23)CC1 (stereo not shown) [compound 271] | 25 to 60 µM | < 25%
16 | CC(c1nc2ccccc2c(=O)n1C)N1CCN(S(=O)(=O)c2csc3ccccc23)CC1 (stereo not shown) [compound 272] | < 10 µM | 25 to 100%

Row | Structure (SMILES) | EC50 | Emax
17 | CC(C)c1ccc(S(=O)(=O)N2CCN(C(C)c3nc4ccccc4c(=O)n3C)CC2)cc1 (stereo not shown) [compound 273] | 25 to 60 µM | < 25%
18 | CC(c1nc2ccccc2c(=O)n1C)N1CCN(S(=O)(=O)c2cccs2)CC1 (stereo not shown) [compound 274] | 25 to 60 µM | < 25%
19 | CC(c1nc2ccccc2c(=O)n1C)N1CCN(S(=O)(=O)c2ccc(-c3cc(C(F)(F)F)n(C)n3)s2)CC1 (stereo not shown) [compound 275] | 25 to 60 µM | < 25%
20 | CC(c1nc2ccccc2c(=O)n1C)N1CCN(S(=O)(=O)c2cccc3cccnc23)CC1 (stereo not shown) [compound 276] | 25 to 60 µM | < 25%
21 | CSc1nccc(-c2ccc(S(=O)(=O)N3CCN(C(C)c4nc5ccccc5c(=O)n4C)CC3)s2)n1 (stereo not shown) [compound 277] | 25 to 60 µM | < 25%
22 | CC(c1nc2ccccc2c(=O)n1C)N1CCN(S(=O)(=O)Cc2ccccc2)CC1 (stereo not shown) [compound 278] | 25 to 60 µM | < 25%
23 | CC(c1nc2ccccc2c(=O)n1C)N1CCN(S(=O)(=O)c2cccc(C#N)c2)CC1 (stereo not shown) [compound 279] | 25 to 60 µM | < 25%
24 | CC(c1nc2ccccc2c(=O)n1C)N1CCN(S(=O)(=O)c2ccc(-c3csnn3)s2)CC1 (stereo not shown) [compound 280] | 10 to 25 µM | < 25%
25 | CC(c1nc2ccccc2c(=O)n1C)N1CCN(S(=O)(=O)c2ccc(-c3ccccn3)s2)CC1 (stereo not shown) [compound 281] | 25 to 60 µM | < 25%
26 | CC(c1nc2ccccc2c(=O)n1C)N1CCN(S(=O)(=O)c2cccc3nsnc23)CC1 (stereo not shown) [compound 282] | 25 to 60 µM | < 25%
27 | COc1cc2nc(C(C)N3CCN(S(=O)(=O)c4ccc(Cl)cc4)CC3)n(C)c(=O)c2cc1OC (stereo not shown) [compound 283] | 25 to 60 µM | 25 to 100%
28 | COc1cc2nc(C(C)N3CCN(S(=O)(=O)c4ccc(Br)cc4)CC3)n(C)c(=O)c2cc1OC (stereo not shown) [compound 284] | 25 to 60 µM | 25 to 100%
29 | COc1ccc(S(=O)(=O)N2CCN(C(C)c3nc4cc(OC)c(OC)cc4c(=O)n3C)CC2)cc1 (stereo not shown) [compound 285] | 25 to 60 µM | 25 to 100%
30 | COc1cc2nc(C(C)N3CCN(S(=O)(=O)c4ccc(C)cc4)CC3)n(C)c(=O)c2cc1OC (stereo not shown) [compound 286] | 25 to 60 µM | 25 to 100%
31 | CC(=O)NCCn1c(C(C)N2CCN(S(=O)(=O)c3ccc(Br)cc3)CC2)nc2ccccc2c1=O (stereo not shown) [compound 287] | 25 to 60 µM | 25 to 100%
32 | COc1ccc(S(=O)(=O)N2CCN(C(C)c3nc4ccccc4c(=O)n3CCNC(C)=O)CC2)cc1 (stereo not shown) [compound 288] | 25 to 60 µM | < 25%
